Consider 13 compounds from patent US11771709B2, “ALK protein degradation agent and anti-tumor application thereof” (ShanghaiTech University, priority 2017, dated 2023).

Common to all, as to assay type: cell-based
In experiment [1] the target is T1, ALK protein in SR (NPM-ALK) cells (Homo sapiens, UniProt Q9UM73).
T1 construct: NPM (nucleophosmin, NPM1, P06748) fusion partner; host or cells: SR (ALCL) cells; the other entry of the earlier key: NPM1 (P06748, Nucleophosmin)
In words: Western blot of ALK protein level (degradation, DC50), ALK phosphorylation and downstream signaling in SR cells. Particulars: ALK protein degradation in SR cells.
Procedure: (§1) Cancer cells were seeded in 1 ml RPMI1640 medium in 24-well plate at the density of 3×10^5 or 1.5×10^5 cells/ml. […] Then cells were washed twice with PBS and lyzed in RIPA lysis buffer with Halt Proteinase and Phosphotase inhibitor. Equal amount of proteins were loaded to run SDS-PAGE gels after denature. The gels were blotted to PVDF membrane. After incubating with first and secondary antibodies, the images were developed using SuperSignal West Pico Chemiluminescent Substrate.
(§2) DC50 (concentration required to degrade protein by half) were calculated based on the intensity from western blot, and data were analyzed via Prism GraphPad with non-linear regression.

Experiment [2] has as its target T2, ALK protein in H3122 (EML4-ALK) cells (Homo sapiens, UniProt Q9UM73).
T2 construct: EML4 (Echinoderm microtubule-associated protein-like 4, Q9HC35) fusion partner, variant 1; host or cells: NCI-H3122 lung adenocarcinoma cells; the other entry of the earlier key: EML4 (Q9HC35, Echinoderm microtubule-associated protein-like 4)
In words: Western blot of ALK protein level (degradation, DC50), ALK phosphorylation and downstream signaling in H3122 cells. To be noted: ALK protein degradation in H3122 cells.
Procedure: as §1, §2

The test system of another experiment is SR (NPM-ALK) cells. Briefly: Growth inhibition IC50 in ALCL SR cells (CCK8/WST, 72 hours). Particulars: 72 h, SR cells, WST; Brigatinib-based PROTAD molecules (Table 3).

Molecules are shown by their SMILES.

T2 sequence (Q9UM73 with tags, fused parts or gaps): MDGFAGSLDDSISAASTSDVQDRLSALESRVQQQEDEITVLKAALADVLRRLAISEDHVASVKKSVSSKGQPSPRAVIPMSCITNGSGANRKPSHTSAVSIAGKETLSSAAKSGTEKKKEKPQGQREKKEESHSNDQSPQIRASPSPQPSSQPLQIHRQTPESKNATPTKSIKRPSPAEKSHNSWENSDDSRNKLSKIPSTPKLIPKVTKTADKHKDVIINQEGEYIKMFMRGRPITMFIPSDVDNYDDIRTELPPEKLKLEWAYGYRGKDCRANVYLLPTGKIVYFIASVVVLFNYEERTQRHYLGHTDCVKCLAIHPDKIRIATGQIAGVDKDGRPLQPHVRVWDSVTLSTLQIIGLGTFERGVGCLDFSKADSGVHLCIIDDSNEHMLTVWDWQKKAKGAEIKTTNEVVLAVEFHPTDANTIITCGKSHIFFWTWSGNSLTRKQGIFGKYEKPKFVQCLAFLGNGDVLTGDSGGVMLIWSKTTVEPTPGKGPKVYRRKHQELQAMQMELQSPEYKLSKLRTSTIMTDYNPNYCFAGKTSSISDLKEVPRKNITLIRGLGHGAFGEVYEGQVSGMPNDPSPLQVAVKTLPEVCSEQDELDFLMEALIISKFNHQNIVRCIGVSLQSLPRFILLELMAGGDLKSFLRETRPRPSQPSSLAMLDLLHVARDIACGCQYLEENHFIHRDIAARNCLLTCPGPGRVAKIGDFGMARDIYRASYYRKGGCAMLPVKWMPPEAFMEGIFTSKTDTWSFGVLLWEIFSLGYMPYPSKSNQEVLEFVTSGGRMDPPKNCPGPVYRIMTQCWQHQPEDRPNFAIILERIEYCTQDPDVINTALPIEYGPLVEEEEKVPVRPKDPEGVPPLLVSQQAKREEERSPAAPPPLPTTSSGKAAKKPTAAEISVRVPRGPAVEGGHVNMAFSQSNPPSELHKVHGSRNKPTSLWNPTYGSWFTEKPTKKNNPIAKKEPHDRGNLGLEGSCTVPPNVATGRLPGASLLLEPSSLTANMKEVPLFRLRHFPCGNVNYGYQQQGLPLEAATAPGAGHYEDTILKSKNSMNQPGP
T1 sequence (Q9UM73 with tags, fused parts or gaps): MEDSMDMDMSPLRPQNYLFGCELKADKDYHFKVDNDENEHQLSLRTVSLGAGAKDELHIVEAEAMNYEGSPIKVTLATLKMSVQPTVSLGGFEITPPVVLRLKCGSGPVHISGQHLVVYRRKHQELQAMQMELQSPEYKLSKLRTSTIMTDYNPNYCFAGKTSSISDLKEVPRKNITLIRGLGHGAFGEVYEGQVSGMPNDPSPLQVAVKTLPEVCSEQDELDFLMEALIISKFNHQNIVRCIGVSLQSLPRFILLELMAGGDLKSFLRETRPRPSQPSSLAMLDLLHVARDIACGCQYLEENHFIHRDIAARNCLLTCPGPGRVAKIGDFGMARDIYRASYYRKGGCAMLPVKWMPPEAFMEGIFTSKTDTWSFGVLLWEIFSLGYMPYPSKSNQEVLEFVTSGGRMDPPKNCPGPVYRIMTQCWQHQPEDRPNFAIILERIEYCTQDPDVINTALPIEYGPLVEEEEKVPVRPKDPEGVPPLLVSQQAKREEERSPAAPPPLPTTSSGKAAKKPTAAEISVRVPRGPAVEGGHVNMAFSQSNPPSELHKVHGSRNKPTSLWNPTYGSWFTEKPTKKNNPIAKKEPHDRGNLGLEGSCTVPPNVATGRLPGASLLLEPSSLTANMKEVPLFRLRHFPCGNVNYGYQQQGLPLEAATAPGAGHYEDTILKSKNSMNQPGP

In the case of `COc1cc(N2CCC(N3CCN(C(=O)CCOCCOCCOCCOCCC(=O)N[C@H](C(=O)N4C[C@H](O)C[C@H]4C(=O)NCc4ccc(-c5scnc5C)cc4)C(C)(C)C)CC3)CC2)ccc1Nc1ncc(Cl)c(Nc2ccccc2P(C)(C)=O)n1` [SIAIS164034, (2S,4R)-1-((S)-2-(tert-butyl)-19-(4-(1-(4-((5-chloro-4-((2-(dimethylphosphoryl)phenyl)amino)pyrimidin-2-yl)amino)-3-methoxyphenyl)piperidin-4-yl)piperazin-1-yl)-4,19-dioxo-7,10,13,16-tetraoxa-3-azanonadecanoyl)-4-hydroxy-N-(4-(4-methylthiazol-5-yl)benzyl)pyrrolidine-2-carboxamide], the half-maximal degradation concentration (DC50) in experiment [1] and in experiment [2] was 100 to 500 nM throughout. Further, the half-inhibitory concentration (IC50) in the experiment with SR (NPM-ALK) cells was 0.0886 ± 0.063 µM.

Turning to `COc1cc(N2CCC(N3CCN(C(=O)CCOCCOCCOCCOCCOCCC(=O)N[C@H](C(=O)N4C[C@H](O)C[C@H]4C(=O)NCc4ccc(-c5scnc5C)cc4)C(C)(C)C)CC3)CC2)ccc1Nc1ncc(Cl)c(Nc2ccccc2P(C)(C)=O)n1` [SIAIS164035, (2S,4R)-1-((S)-2-(tert-butyl)-22-(4-(1-(4-((5-chloro-4-((2-(dimethylphosphoryl)phenyl)amino)pyrimidin-2-yl)amino)-3-methoxyphenyl)piperidin-4-yl)piperazin-1-yl)-4,22-dioxo-7,10,13,16,19-pentaoxa-3-azadocosanoyl)-4-hydroxy-N-(4-(4-methylthiazol-5-yl)benzyl)pyrrolidine-2-carboxamide], the DC50 in experiment [1] and in experiment [2] was 100 to 500 nM in each case. Inhibition in the experiment on SR (NPM-ALK) cells was half-maximal at 0.0418 ± 0.0247 µM (IC50).

In the case of `COc1cc(N2CCC(N3CCN(C(=O)COCCOCC(=O)N[C@H](C(=O)N4C[C@H](O)C[C@H]4C(=O)NCc4ccc(-c5scnc5C)cc4)C(C)(C)C)CC3)CC2)ccc1Nc1ncc(Cl)c(Nc2ccccc2P(C)(C)=O)n1` [SIAIS164041, (2S,4R)-1-((S)-2-(2-(2-(2-(4-(1-(4-((5-chloro-4-((2-(dimethylphosphoryl)phenyl)amino)pyrimidin-2-yl)amino)-3-methoxyphenyl)piperidin-4-yl)piperazin-1-yl)-2-oxoethoxy)ethoxy)acetamido)-3,3-dimethylbutanoyl)-4-hydroxy-N-(4-(4-methylthiazol-5-yl)benzyl)pyrrolidine-2-carboxamide], the DC50 in experiment [1] fell in the range of 10 to 50 nM; in experiment [2], 10 to 500 nM. In the experiment on SR (NPM-ALK) cells, this compound showed a concentration for half-maximal inhibition (IC50) of 0.0427 ± 0.0294 µM.

Take `COc1cc(N2CCC(N3CCN(C(=O)CCC(=O)N[C@H](C(=O)N4C[C@H](O)C[C@H]4C(=O)NCc4ccc(-c5scnc5C)cc4)C(C)(C)C)CC3)CC2)ccc1Nc1ncc(Cl)c(Nc2ccccc2P(C)(C)=O)n1` [SIAIS164120, (2S,4R)-1-((S)-2-(4-(4-(1-(4-((5-chloro-4-((2-(dimethylphosphoryl)phenyl)amino)pyrimidin-2-yl)amino)-3-methoxyphenyl)piperidin-4-yl)piperazin-1-yl)-4-oxobutanamido)-3,3-dimethylbutanoyl)-4-hydroxy-N-(4-(4-methylthiazol-5-yl)benzyl)pyrrolidine-2-carboxamide]: the 50% degradation concentration (DC50) in experiment [1] was in the range of 1 to 10 nM; in experiment [2], 10 to 100 nM. Also, in the experiment on SR (NPM-ALK) cells, the midpoint of inhibition, the IC50, lay at 0.0192 ± 0.0088 µM.

Turning to `COc1cc(N2CCC(N3CCN(C(=O)CCCC(=O)N[C@H](C(=O)N4C[C@H](O)C[C@H]4C(=O)NCc4ccc(-c5scnc5C)cc4)C(C)(C)C)CC3)CC2)ccc1Nc1ncc(Cl)c(Nc2ccccc2P(C)(C)=O)n1` [SIAIS164121, (2S,4R)-1-((S)-2-(5-(4-(1-(4-((5-chloro-4-((2-(dimethylphosphoryl)phenyl)amino)pyrimidin-2-yl)amino)-3-methoxyphenyl)piperidin-4-yl)piperazin-1-yl)-5-oxopentanamido)-3,3-dimethylbutanoyl)-4-hydroxy-N-(4-(4-methylthiazol-5-yl)benzyl)pyrrolidine-2-carboxamide], the DC50 in experiment [1] was 1 to 10 nM; in experiment [2], 50 to 100 nM. The same compound had a half-inhibitory concentration (IC50) with SR (NPM-ALK) cells of 0.0216 ± 0.0125 µM.

`COc1cc(N2CCC(N3CCN(C(=O)CCCCC(=O)N[C@H](C(=O)N4C[C@H](O)C[C@H]4C(=O)NCc4ccc(-c5scnc5C)cc4)C(C)(C)C)CC3)CC2)ccc1Nc1ncc(Cl)c(Nc2ccccc2P(C)(C)=O)n1` [SIAIS164122, (2S,4R)-1-((S)-2-(6-(4-(1-(4-((5-chloro-4-((2-(dimethylphosphoryl)phenyl)amino)pyrimidin-2-yl)amino)-3-methoxyphenyl)piperidin-4-yl)piperazin-1-yl)-6-oxohexanamido)-3,3-dimethylbutanoyl)-4-hydroxy-N-(4-(4-methylthiazol-5-yl)benzyl)pyrrolidine-2-carboxamide]: the DC50 in experiment [1] lay within 1 to 50 nM; in experiment [2], 50 to 100 nM. Also, it took 0.0121 ± 0.0092 µM to reach half-maximal inhibition with SR (NPM-ALK) cells (IC50).

Turning to `COc1cc(N2CCC(N3CCN(C(=O)CCCCCC(=O)N[C@H](C(=O)N4C[C@H](O)C[C@H]4C(=O)NCc4ccc(-c5scnc5C)cc4)C(C)(C)C)CC3)CC2)ccc1Nc1ncc(Cl)c(Nc2ccccc2P(C)(C)=O)n1` [SIAIS164123, (2S,4R)-1-((S)-2-(7-(4-(1-(4-((5-chloro-4-((2-(dimethylphosphoryl)phenyl)amino)pyrimidin-2-yl)amino)-3-methoxyphenyl)piperidin-4-yl)piperazin-1-yl)-7-oxoheptanamido)-3,3-dimethylbutanoyl)-4-hydroxy-N-(4-(4-methylthiazol-5-yl)benzyl)pyrrolidine-2-carboxamide], the 50% degradation concentration (DC50) in experiment [1] lay within 1 to 50 nM; in experiment [2], 10 to 50 nM. Besides, the IC50 in the experiment on SR (NPM-ALK) cells came out at 0.0114 ± 0.0081 µM.

In the case of `COc1cc(N2CCC(N3CCN(C(=O)CCCCCCC(=O)N[C@H](C(=O)N4C[C@H](O)C[C@H]4C(=O)NCc4ccc(-c5scnc5C)cc4)C(C)(C)C)CC3)CC2)ccc1Nc1ncc(Cl)c(Nc2ccccc2P(C)(C)=O)n1` [SIAIS164124, (2S,4R)-1-((S)-2-(8-(4-(-(4-((5-chloro-4-((2-(dimethylphosphoryl)phenyl)amino)pyrimidin-2-yl)amino)-3-methoxyphenyl)piperidin-4-yl)piperazin-1-yl)-8-oxooctanamido)-3,3-dimethylbutanoyl)-4-hydroxy-N-(4-(4-methylthiazol-5-yl)benzyl)pyrrolidine-2-carboxamide], the DC50 in experiment [1] is 1 to 10 nM; in experiment [2] it was 100 to 500 nM. Moreover, the 50% inhibitory concentration (IC50) in the experiment on SR (NPM-ALK) cells was 0.0095 ± 0.0081 µM.

As for `COc1cc(N2CCC(N3CCN(C(=O)CCCCCCCC(=O)N[C@H](C(=O)N4C[C@H](O)C[C@H]4C(=O)NCc4ccc(-c5scnc5C)cc4)C(C)(C)C)CC3)CC2)ccc1Nc1ncc(Cl)c(Nc2ccccc2P(C)(C)=O)n1` [SIAIS164125, (2S,4R)-1-((S)-2-(9-(4-(1-(4-((5-chloro-4-((2-(dimethylphosphoryl)phenyl)amino)pyrimidin-2-yl)amino)-3-methoxyphenyl)piperidin-4-yl)piperazin-1-yl)-9-oxononanamido)-3,3-dimethylbutanoyl)-4-hydroxy-N-(4-(4-methylthiazol-5-yl)benzyl)pyrrolidine-2-carboxamide], the figures for the half-maximal degradation concentration (DC50) in experiment [1] and in experiment [2] were 1 to 10 nM and 10 to 50 nM, respectively. In the experiment on SR (NPM-ALK) cells, this compound came in with an IC50 of 0.009 ± 0.0057 µM.

With `COc1cc(N2CCC(N3CCN(C(=O)CCCCCCCCC(=O)N[C@H](C(=O)N4C[C@H](O)C[C@H]4C(=O)NCc4ccc(-c5scnc5C)cc4)C(C)(C)C)CC3)CC2)ccc1Nc1ncc(Cl)c(Nc2ccccc2P(C)(C)=O)n1` [SIAIS164126, (2S,4R)-1-((S)-2-(10-(4-(1-(4-((5-chloro-4-((2-(dimethylphosphoryl)phenyl)amino)pyrimidin-2-yl)amino)-3-methoxyphenyl)piperidin-4-yl)piperazin-1-yl)-10-oxodecanamido)-3,3-dimethylbutanoyl)-4-hydroxy-N-(4-(4-methylthiazol-5-yl)benzyl)pyrrolidine-2-carboxamide], the DC50 in experiment [1] is 1 to 10 nM; in experiment [2], 10 to 50 nM. In addition, in the experiment on SR (NPM-ALK) cells, the concentration for half-maximal inhibition (IC50) is 0.008 ± 0.0067 µM.

Regarding `COc1cc(N2CCC(NC(=O)CCC(=O)N[C@H](C(=O)N3C[C@H](O)C[C@H]3C(=O)NCc3ccc(-c4scnc4C)cc3)C(C)(C)C)CC2)ccc1Nc1ncc(Cl)c(Nc2ccccc2P(C)(C)=O)n1` [SIAIS164143, N1-(1-(4-((5-chloro-4-((2-(dimethylphosphoryl)phenyl)amino)pyrimidin-2-yl)amino)-3-methoxyphenyl)piperidin-4-yl)-N4-((S)-1-((2S,4R)-4-hydroxy-2-((4-(4-methylthiazol-5-yl)benzyl)carbamoyl)pyrrolidin-1-yl)-3,3-dimethyl-1-oxobutan-2-yl) succinamide], the half-maximal degradation concentration (DC50) in experiment [1] was 1 to 10 nM; in experiment [2], 50 to 100 nM. In addition, in the experiment on SR (NPM-ALK) cells, the concentration for half-maximal inhibition (IC50) amounted to 0.0117 ± 0.0042 µM.

As to `COc1cc(N2CCC(NC(=O)CCCC(=O)N[C@H](C(=O)N3C[C@H](O)C[C@H]3C(=O)NCc3ccc(-c4scnc4C)cc3)C(C)(C)C)CC2)ccc1Nc1ncc(Cl)c(Nc2ccccc2P(C)(C)=O)n1` [SIAIS164144, N1-(1-(4-((5-chloro-4-((2-(dimethylphosphoryl)phenyl)amino)pyrimidin-2-yl)amino)-3-methoxyphenyl)piperidin-4-yl)-N5-((S)-1-((2S,4R)-4-hydroxy-2-((4-(4-methylthiazol-5-yl)benzyl)carbamoyl)pyrrolidin-1-yl)-3,3-dimethyl-1-oxobutan-2-yl)glutaramide], the DC50 in experiment [1] lay in the range of 1 to 10 nM; in experiment [2], 20 to 100 nM. In the experiment on SR (NPM-ALK) cells, this compound returned an IC50 of 0.0136 ± 0.0091 µM.

As to `COc1cc(N2CCC(NC(=O)CCCCC(=O)N[C@H](C(=O)N3C[C@H](O)C[C@H]3C(=O)NCc3ccc(-c4scnc4C)cc3)C(C)(C)C)CC2)ccc1Nc1ncc(Cl)c(Nc2ccccc2P(C)(C)=O)n1` [SIAIS164145, N1-(1-(4-((5-chloro-4-((2-(dimethylphosphoryl)phenyl)amino)pyrimidin-2-yl)amino)-3-methoxyphenyl)piperidin-4-yl)-N6-((S)-1-((2S,4R)-4-hydroxy-2-((4-(4-methylthiazol-5-yl)benzyl)carbamoyl)pyrrolidin-1-yl)-3,3-dimethyl-1-oxobutan-2-yl)adipamide], the figures for the DC50 in experiment [1] and in experiment [2] were 1 to 10 nM and 50 to 100 nM, respectively. Besides, the half-inhibitory concentration (IC50) with SR (NPM-ALK) cells is 0.0103 ± 0.0063 µM.
